In PMC5963671, “Hes1 inhibitor isolated by target protein oriented natural products isolation (TPO-NAPI) of differentiation activators of neural stem cells† †Electronic supplementary information (ESI) available. See DOI: 10.1039/c5sc03540f” (Chemical Science, 2015):

T1: Hes1 (Rattus norvegicus, UniProt Q04666)
T1 construct: Rat-Hes1 (residues 3-281)
T1 sequence (Q04666 3-281): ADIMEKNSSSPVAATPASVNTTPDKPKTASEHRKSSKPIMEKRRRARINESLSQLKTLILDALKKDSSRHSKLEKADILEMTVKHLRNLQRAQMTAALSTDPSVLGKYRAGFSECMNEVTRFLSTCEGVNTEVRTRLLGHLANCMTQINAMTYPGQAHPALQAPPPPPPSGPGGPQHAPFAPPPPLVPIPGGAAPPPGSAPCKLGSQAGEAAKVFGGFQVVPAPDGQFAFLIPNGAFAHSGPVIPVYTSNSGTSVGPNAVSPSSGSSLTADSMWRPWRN

B1: Rat-Hes1 (residues 3-281) (natural protein, UniProt Q04666 3-281, looked up)
chain: T1 sequence (Q04666 3-281)
modifications: Cy3 label on the copy added in solution (dye/protein = 0.65); the immobilised copy is unlabelled
notes: Hes1 (hairy and Enhancer of split 1), rat, residues 3-281; One copy was coupled to a Nunc Immobilizer Amino plate and the other was Cy3-labelled; also called Cy3-labeled Hes1; Cy3-Hes1

Tests used:
Hes1 [1] = target: T1, Hes1; assay: Hes1 dimer fluorescence plate assay (Cy3-Hes1); binding also shown by GST-Hes1 beads-HPLC
Hes1 [2] = target: T1, Hes1; assay: biochemical; parameters: Fluorescence plate assay of Hes1 dimer formation, immobilized Hes1 with Cy3-labeled Hes1; conditions: Hes1 dimer formation
Description: Nunc Immobilizer™ Amino 96 well plate, white (Nalge Nunc Int.) was used for immobilizing of Hes1. The wells were incubated with 100 μL of Hes1 (10 μg mL^–1 in PBS) for 2 h at 4 °C. After the removal of protein solution, to block remaining activated units on the well, the wells were incubated for 2 h at 4 °C with 100 μL of 10 mM ethanolamine (in 100 mM Na2CO3 buffer, pH 9.6), then washed twice with 200 μL of PBST (PBS containing 0.05% Tween 20). The Hes1 bound microplate wells were incubated with 50 μL of Cy3-labeled-Hes1 in NET-N buffer (ca. 7 mg L^–1, dye/protein = 0.65) for 24 h at 4 °C. After removal of protein solution, each well was washed twice with 200 μL of PBST, then each compound solution (NET-N buffer, 50 μL) was added. After incubation for 1 h at RT in the dark, each well was washed twice with 200 μL of PBST, then dried under reduced pressure 1 h in the dark. The fluorescence intensity was measured in a microplate reader (Fluoroskan Ascent, Thermo). The Cy3 dye was excited at 530 nm and emitted at 590 nm. Usually, the assays were carried out in three individual wells, and the mean value and SD were calculated. Fig. 4 Hes1 dimer formation inhibitory activity. (a) Schematic representation of the assay for inhibitors of Hes1 dimer formation. Rat-Hes1 (residues 3-281) was exposed to Cy3-labeled Hes1. Hes1 dimer was detected through its fluorescence intensity.[40] The assay was performed after the equilibrium of exchange between immobilized Hes1 with Cy3-Hes1 and unlabeled Hes1 which was estimated to be included as unlabeled Hes1 dimers at the immobilizing stage. (b) Hes1 dimer formation inhibition by the isolated compounds 2–4. […] The complex was detected with horseradish peroxidase (HRP) conjugated anti-GST antibody. […] The ratio of dye/protein was calculated from the absorption for Cy3 (ε 150000 M-1 cm-1 at 552 nm). […] Fluorescence plate assay for inhibitors of Hes1 dimer formation Nunc ImmobilizerTM Amino 96 well plate, white (Nalge Nunc Int.) was used for immobilizing of Hes1. […] The fluorescence intensity was measured in a microplate reader (Fluoroskan Ascent, Thermo). […]

Hes1 [3] = target: T1, Hes1; assay: Hes1 dimer fluorescence plate assay (Cy3-Hes1); binding also shown by GST-Hes1 beads-HPLC with truncated proteins
[4] = target: the molecule itself; assay: fluorescence plate assay (Hes1 dimer plate assay); Hes1 (10 μg/mL in PBS) immobilised on a Nunc Immobilizer Amino 96 well plate; Cy3-labeled Hes1 (ca. 7 mg/L) in NET-N buffer for 24 h at 4 °C; washed with PBST; fluorescence read at 530/590 nm

Row | Molecule | IC50 (Hes1 [2]) | other results
1 | COc1cc(O[C@@H]2O[C@H](CO[C@@H]3OC[C@@H](O)[C@H](O)[C@H]3O)[C@@H](O)[C@H](O)[C@H]2O)c2c(=O)cc(-c3ccc(OC)c(OC)c3)oc2c1 [compound 4, lethedioside A] | – | IC50 (Hes1 [1]): 9.5 µM
2 | COc1c(O)cc2oc3cc(O)c(CC=C(C)C)c(O)c3c(=O)c2c1CC=C(C)C [compound 5, α-Mangostine] | > 64 µM | –
3 | COc1ccc(-c2cc(=O)c3c(O[C@@H]4O[C@H](CO[C@@H]5OC[C@@H](O)[C@H](O)[C@H]5O)[C@@H](O)[C@H](O)[C@H]4O)cc(OC)cc3o2)cc1 [compound 2, agalloside] | – | IC50 (Hes1 [3]): 10.1 µM
4 | COc1cc(O[C@@H]2O[C@H](CO[C@@H]3OC[C@@H](O)[C@H](O)[C@H]3O)[C@@H](O)[C@H](O)[C@H]2O)c2c(=O)cc(-c3ccc(O)cc3)oc2c1 [compound 3, genkwanin 5-O-β-D-xylosyl-β-D-glucoside] | > 64 µM | –
5 | CCCC(=O)/C=C/C1=C(O)C(=O)c2cc(O)c(O)cc2C1=O [compound 1, lindbladione] | 3.7 µM | –
6 | B1 | – | binding result [4]: binds
